Measured values reported in patent publication US12570655B2, “Cysteine covalent modifiers of AKT1 and uses thereof” (Terremoto Biosciences, Inc., priority 2023, dated 2026).
Where two headings read alike, the source gives them in different places.

Legend:
Type in all cases: cell-based
[1] = molecular target: T1, AKT1 WT (Homo sapiens, UniProt P31749); assay: Live cell AKT1 WT target engagement by NanoBRET competitive probe displacement; conditions: HEK293 cells transfected with kinase-NanoLuciferase fusion, 2 h at 37° C.
T1 construct: expressed in transfected cells; host or cells: HEK293
T1 sequence (P31749 whole entry, the tested form may be a part): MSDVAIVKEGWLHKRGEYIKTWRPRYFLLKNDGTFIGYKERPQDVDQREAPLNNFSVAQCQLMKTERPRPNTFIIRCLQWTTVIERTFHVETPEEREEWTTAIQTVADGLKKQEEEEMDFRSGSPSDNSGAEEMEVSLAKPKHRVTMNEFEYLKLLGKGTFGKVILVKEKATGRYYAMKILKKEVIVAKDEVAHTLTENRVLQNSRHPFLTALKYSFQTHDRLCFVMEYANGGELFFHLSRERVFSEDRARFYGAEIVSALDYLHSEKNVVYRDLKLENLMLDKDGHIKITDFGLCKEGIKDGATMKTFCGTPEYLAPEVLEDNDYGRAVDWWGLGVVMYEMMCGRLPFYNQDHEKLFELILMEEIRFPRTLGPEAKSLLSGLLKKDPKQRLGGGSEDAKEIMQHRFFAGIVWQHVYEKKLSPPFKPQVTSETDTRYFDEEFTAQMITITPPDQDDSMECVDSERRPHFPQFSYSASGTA
In short: (§1)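 IC50 fitted (Hill, log inhibitor vs response) to BRET signal, E600/E460 ratio, measured with extracellular NanoLuc inhibitor present. Intact transfected HEK293 cells bearing NanoLuc-tagged kinase were co-incubated 2 h, 37 °C, with compound dilution series and ~EC50 ATP-competitive fluorescent tracer.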

[2] = molecular target: T2, AKT1 E17K (Homo sapiens, UniProt P31749, E17K); assay: Live cell AKT1 E17K target engagement by NanoBRET competitive probe displacement; conditions: HEK293 cells transfected with kinase-NanoLuciferase fusion, 2 h at 37° C.
T2 construct: expressed in transfected cells; host or cells: HEK293
T2 sequence (P31749 whole entry E17K, the tested form may be a part): as the sequence (P31749 whole entry, the tested form may be a part) above, with E17K counted along it
In short: as §1

[3] = molecular target: T3, AKT2 (Homo sapiens, UniProt P31751); assay: Live cell AKT2 target engagement by NanoBRET competitive probe displacement; conditions: HEK293 cells transfected with kinase-NanoLuciferase fusion, 2 h at 37° C.
T3 construct: expressed in transfected cells; host or cells: HEK293
T3 sequence (P31751 whole entry, the tested form may be a part): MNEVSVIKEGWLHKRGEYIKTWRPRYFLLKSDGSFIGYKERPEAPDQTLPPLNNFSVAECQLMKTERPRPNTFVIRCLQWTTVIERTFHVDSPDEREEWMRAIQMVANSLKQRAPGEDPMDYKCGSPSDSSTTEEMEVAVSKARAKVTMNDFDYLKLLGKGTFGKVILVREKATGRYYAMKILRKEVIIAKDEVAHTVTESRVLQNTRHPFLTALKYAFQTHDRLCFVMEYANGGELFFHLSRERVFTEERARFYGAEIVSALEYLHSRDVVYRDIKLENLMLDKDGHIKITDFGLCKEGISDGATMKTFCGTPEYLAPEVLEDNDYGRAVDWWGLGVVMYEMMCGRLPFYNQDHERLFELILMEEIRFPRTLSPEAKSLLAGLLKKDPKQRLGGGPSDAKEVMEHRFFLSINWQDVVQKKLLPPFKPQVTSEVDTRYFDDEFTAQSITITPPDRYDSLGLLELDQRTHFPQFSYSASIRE
In short: as §1

[4] = test system: LAPC4 prostate cancer cells; assay: Antiproliferative effects in LAPC4 cells (CellTiter Glo); conditions: LAPC4 cells (AKT1 E17K allele), read-out: LAPC4 proliferation IC50
In short: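 Growth inhibition was measured by CellTiter Glo ATP luminescence after 72 h compound exposure of 1,000 seeded cells/well. The cells were AKT1 E17K-expressing LAPC4 prostate cancer cells maintained in IMDM plus 12% FBS. IC50 values came from Hill-equation fits.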

Row | IC50 [1] | IC50 [2] | IC50 [3] | IC50 ([4]; 72 h) | IC50 ([4]; Homo sapiens, LAPC4, 72 h) | Structure (SMILES)
1 | 6.71 nM | 23.9 nM | 104 nM | 144 nM | – | C=CC(=O)N1CCC(N[C@H]2CCc3cc(-n4c(-c5cccnc5N)nc5ccc(-n6cccn6)nc54)ccc32)C(F)(F)C1 (single isomer, unassigned) [Example 56, 1-((*)-4-(((S)-5-(2-(2-aminopyridin-3-yl)-5-(1H-pyrazol-1-yl)-3H-imidazo[4,5-b]pyridin-3-yl)-2,3-dihydro-1H-inden-1-yl)amino)-3,3-difluoropiperidin-1-yl)prop-2-en-1-one]
2 | 273 nM | 10.7 nM | 36.3 nM | – | 124 nM | C=CC(=O)N1CCC(N[C@@H]2c3ccc(-n4c(-c5cccnc5N)nc5ccc(-n6ccc(OC)n6)nc54)cc3CC2F)CC1 (single isomer, unassigned) [Example 286, 1-(4-(((1R,2*)-5-(2-(2-aminopyridin-3-yl)-5-(3-methoxy-1H-pyrazol-1-yl)-3H-imidazo[4,5-b]pyridin-3-yl)-2-fluoro-2,3-dihydro-1H-inden-1-yl)amino)piperidin-1-yl)prop-2-en-1-one]
3 | 1740 nM | 112 nM | 835 nM | – | 1190 nM | C=CC(=O)N1CCC(N[C@H]2CCc3cc(-n4c(-c5cccnc5N)nc5ccc(N6CCCOCC6)nc54)ccc32)CC1 [Example 205, 1-(4-{[(1S)-5-[2-(2-aminopyridin-3-yl)-5-(1,4-oxazepan-4-yl)imidazo[4,5-b]pyridin-3-yl]-2,3-dihydro-1H-inden-1-yl]amino}piperidin-1-yl)prop-2-en-1-one]
4 | 23.5 nM | 60.8 nM | 189 nM | – | 109 nM | C=CC(=O)N1CCC(N[C@@H]2CCc3cc(-n4c(-c5cccnc5N)nc5ccc(-n6cccn6)nc54)ccc32)CC1 [Example 149, 1-(4-{[(1R)-5-[2-(2-aminopyridin-3-yl)-5-(pyrazol-1-yl)imidazo[4,5-b]pyridin-3-yl]-2,3-dihydro-1H-inden-1-yl]amino}piperidin-1-yl)prop-2-en-1-one]
5 | 110 nM | 312 nM | 1190 nM | – | 677 nM | CC(C)(C)/C=C/C(=O)N1CCC(N[C@H]2CCc3cc(-n4c(-c5cccnc5N)nc5ccc(-n6cccn6)nc54)ccc32)CC1 [Example 95, (S,E)-1-(4-((5-(2-(2-aminopyridin-3-yl)-5-(1H-pyrazol-1-yl)-3H-imidazo[4,5-b]pyridin-3-yl)-2,3-dihydro-1H-inden-1-yl)amino)piperidin-1-yl)-4,4-dimethylpent-2-en-1-one]
6 | 20 nM | 53.3 nM | 158 nM | – | 145 nM | C=CC(=O)N1CC2COCC(C1)C2N[C@H]1CCc2cc(-n3c(-c4cccnc4N)nc4ccc(-n5cccn5)nc43)ccc21 (mixture of isomers) [Example 64, 1-(9-(((S)-5-(2-(2-aminopyridin-3-yl)-5-(1H-pyrazol-1-yl)-3H-imidazo[4,5-b]pyridin-3-yl)-2,3-dihydro-1H-inden-1-yl)amino)-3-oxa-7-azabicyclo[3.3.1]nonan-7-yl)prop-2-en-1-one]
7 | 121 nM | 18.9 nM | 28.6 nM | – | 469 nM | Nc1ncccc1-c1nc2ccc(-n3cccn3)nc2n1-c1ccc2c(c1)CC[C@@H]2NC1CCN(C(=O)CCl)CC1 [Example 197, 1-(4-{[(1S)-5-[2-(2-aminopyridin-3-yl)-5-(pyrazol-1-yl)imidazo[4,5-b]pyridin-3-yl]-2,3-dihydro-1H-inden-1-yl]amino}piperidin-1-yl)-2-chloroethanone]
8 | 8.15 nM | 22.9 nM | 75.2 nM | 74.9 nM | – | C=CC(=O)NC1CC(N[C@H]2CCc3cc(-n4c(-c5cccnc5N)nc5ccc(-n6cccn6)nc54)ccc32)C1 (single isomer, unassigned) [Example 89, N-((1*,3*)-3-(((S)-5-(2-(2-aminopyridin-3-yl)-5-(1H-pyrazol-1-yl)-3H-imidazo[4,5-b]pyridin-3-yl)-2,3-dihydro-1H-inden-1-yl)amino)cyclobutyl)acrylamide]
